From publication PMC8037569, “Neuroprotective Effect of Aurantio-Obtusin, a Putative Vasopressin V1A Receptor Antagonist, on Transient Forebrain Ischemia Mice Model” (International Journal of Molecular Sciences, 2021)
Where two headings read alike, the source gives them in different places.

Legend:
hV1AR = target: T1, hV1AR (Homo sapiens, UniProt P37288); experiment: GPCR functional assay: intracellular Ca2+ mobilization in transfected CHO cells; assay type: cell-based; details: for % Stimulation (agonist effect) of control agonist response, V1A (h): control response to 1 μM AVP
T1 construct: host or cells: CHO

vasopressin receptors = system: vasopressin receptors; parameters: method as in PMID 32280914; details: at the tested concentrations; cited from earlier work
dopamine receptors = system: dopamine receptors; parameters: method as in PMID 32280914; details: at the tested concentrations; cited from earlier work
hD3 receptor = target: T2, hD3 receptor (Homo sapiens, UniProt P35462); experiment: GPCR functional assay: cAMP modulation by HTRF in transfected CHO cells; assay type: cell-based; details: for % Stimulation (agonist effect) of control agonist response, D3 (h): 100 µM test compound, control response to 300 nM dopamine; for inhibition at 100 µM: CHO, read-out: % Inhibition (antagonist effect) of control agonist response, D3 (h)
T2 construct: host or cells: CHO

hNK1R = target: T3, hNK1R (Homo sapiens, UniProt P25103); experiment: GPCR functional assay: intracellular Ca2+ mobilization in U373MG cells; assay type: cell-based; details: for % Inhibition (antagonist effect) of control agonist response, NK1 (h) / % Stimulation (agonist effect) of control agonist response, NK1 (h): 100 µM test compound; for % Inhibition (antagonist effect) of control agonist response, NK1 (h): control response to 1 nM [Sar9, Met(O2)11]-SP; for % Stimulation (agonist effect) of control agonist response, NK1 (h): control response to 30 nM [Sar9, Met(O2)11]-SP; for inhibition at 100 µM: U373 MG, read-out: % Inhibition (antagonist effect) of control agonist response, NK1 (h)
T3 construct: Human endogenous (U373MG cells); host or cells: U373MG

h5-HT1AR = target: T4, h5-HT1AR (Homo sapiens, UniProt P08908); experiment: GPCR functional assay: intracellular Ca2+ mobilization in Ba/F3 cells; assay type: cell-based; details: for % Inhibition (antagonist effect) of control agonist response, 5-HT1A (h) / % Stimulation (agonist effect) of control agonist response, 5-HT1A (h): 100 µM test compound; for % Inhibition (antagonist effect) of control agonist response, 5-HT1A (h): control response to 30 nM serotonin; for % Stimulation (agonist effect) of control agonist response, 5-HT1A (h): control response to serotonin (2.5 μM); for inhibition at 100 µM: BaF3, read-out: % Inhibition (antagonist effect) of control agonist response, 5-HT1A (h)
T4 construct: host or cells: Ba/F3 (murine pro-B)
T4 sequence (P08908 1-422): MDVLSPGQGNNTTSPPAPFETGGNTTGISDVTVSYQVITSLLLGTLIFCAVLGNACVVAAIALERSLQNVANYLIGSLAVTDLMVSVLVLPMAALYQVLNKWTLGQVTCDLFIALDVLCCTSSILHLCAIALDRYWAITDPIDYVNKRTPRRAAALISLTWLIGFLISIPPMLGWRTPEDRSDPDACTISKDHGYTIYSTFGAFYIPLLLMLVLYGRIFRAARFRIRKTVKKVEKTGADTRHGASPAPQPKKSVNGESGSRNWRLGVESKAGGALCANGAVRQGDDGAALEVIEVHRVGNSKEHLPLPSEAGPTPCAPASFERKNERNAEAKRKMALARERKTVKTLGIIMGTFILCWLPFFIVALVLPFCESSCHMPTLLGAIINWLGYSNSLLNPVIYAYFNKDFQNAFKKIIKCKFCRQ

[1] = target: angiotensin-converting enzyme (ACE); parameters: method as in PMID 18803227; details: read-out: Inhibition of ACE activity, IC50; cited from earlier work
[2] = 100 µM test compound, control response to 10 nM AVP
[3] = CHO, read-out: % Inhibition (antagonist effect) of control agonist response, V1A (h)

T1 sequence (P37288 whole entry): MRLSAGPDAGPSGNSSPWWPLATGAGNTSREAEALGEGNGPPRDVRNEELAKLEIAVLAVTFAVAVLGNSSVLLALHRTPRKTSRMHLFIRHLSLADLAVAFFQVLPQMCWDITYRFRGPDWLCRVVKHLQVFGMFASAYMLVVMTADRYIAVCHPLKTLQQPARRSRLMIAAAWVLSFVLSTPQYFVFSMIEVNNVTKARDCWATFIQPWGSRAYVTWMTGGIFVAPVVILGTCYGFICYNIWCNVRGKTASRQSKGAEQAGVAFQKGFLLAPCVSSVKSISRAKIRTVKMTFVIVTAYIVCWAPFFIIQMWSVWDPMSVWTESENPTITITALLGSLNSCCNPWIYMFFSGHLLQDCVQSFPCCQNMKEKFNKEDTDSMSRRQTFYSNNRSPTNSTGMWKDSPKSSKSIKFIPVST
T2 sequence (P35462 whole entry): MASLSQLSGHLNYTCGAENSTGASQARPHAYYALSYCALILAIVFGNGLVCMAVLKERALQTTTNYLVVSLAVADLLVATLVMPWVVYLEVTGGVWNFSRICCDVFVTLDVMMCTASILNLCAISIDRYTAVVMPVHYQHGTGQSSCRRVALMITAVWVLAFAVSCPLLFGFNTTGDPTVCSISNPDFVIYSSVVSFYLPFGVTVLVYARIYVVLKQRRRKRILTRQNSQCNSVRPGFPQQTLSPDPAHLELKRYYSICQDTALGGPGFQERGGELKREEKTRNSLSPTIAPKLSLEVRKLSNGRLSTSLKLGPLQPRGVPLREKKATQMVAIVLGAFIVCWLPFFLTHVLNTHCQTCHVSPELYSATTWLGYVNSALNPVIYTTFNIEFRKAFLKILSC
T3 sequence (P25103 whole entry): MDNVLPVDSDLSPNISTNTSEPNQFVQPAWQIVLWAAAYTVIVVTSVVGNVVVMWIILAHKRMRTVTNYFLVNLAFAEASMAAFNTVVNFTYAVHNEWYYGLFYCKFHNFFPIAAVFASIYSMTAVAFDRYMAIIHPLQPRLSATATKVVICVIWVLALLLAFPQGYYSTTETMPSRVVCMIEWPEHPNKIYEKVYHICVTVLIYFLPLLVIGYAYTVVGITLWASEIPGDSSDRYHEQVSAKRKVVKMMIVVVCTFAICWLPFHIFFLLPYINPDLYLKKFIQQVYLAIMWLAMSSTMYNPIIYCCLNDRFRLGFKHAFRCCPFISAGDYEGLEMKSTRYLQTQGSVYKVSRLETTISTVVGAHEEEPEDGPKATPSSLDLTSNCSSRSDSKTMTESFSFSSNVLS

With COc1c(O)c(C)cc2c1C(=O)c1c(O)cc(O)cc1C2=O [2-Hydroxyemodin 1-methylether] the inhibition at 12.5 µM (hV1AR; CHO, 12.5 µM, control response to 10 nM AVP, read-out: V1AR antagonist effect, % inhibition) was 23.1%, the inhibition at 25 µM (hV1AR; CHO, 25 µM, control response to 10 nM AVP, read-out: V1AR antagonist effect, % inhibition) was 26.5% and the inhibition at 50 µM (hV1AR; CHO, 50 µM, control response to 10 nM AVP, read-out: V1AR antagonist effect, % inhibition) was 36.6%. For the same compound, the inhibition at 100 µM (hV1AR; CHO, 100 µM test compound, control response to 10 nM AVP, read-out: % Inhibition (antagonist effect) of control agonist response, V1A (h) (converted)) was 42.3%.
For Cc1cc2c(c(O)c1O)C(=O)c1c(O)cc(O)cc1C2=O [7-hydroxyemodin], the “Activity on vasopressin receptors” value (vasopressin receptors) is listed as “showed activity” and the “Activity on dopamine receptors” value (dopamine receptors) is listed as “showed activity”.
For Cc1cc(=O)c2c(O)c3c(OC4OC(CO)C(O)C(O)C4O)cc(O)cc3cc2o1 (stereo not drawn) [Cassiaside], the “% Stimulation (agonist effect) of control agonist response, D3 (h)” value (hD3 receptor) was 14.75 ± 1.20%, the inhibition at 100 µM (hD3 receptor) was -5.05% and the “% Inhibition (antagonist effect) of control agonist response, NK1 (h)” value (hNK1R) was “negligible”. The “% Stimulation (agonist effect) of control agonist response, NK1 (h)” value (hNK1R) was −1.70 ± 0.14%, the inhibition at 100 µM (hNK1R) was 20.5% and the “% Inhibition (antagonist effect) of control agonist response, 5-HT1A (h)” value (h5-HT1AR) was “negligible”. The “% Stimulation (agonist effect) of control agonist response, 5-HT1A (h)” value (h5-HT1AR) was 1.75 ± 0.07%, the inhibition at 100 µM (h5-HT1AR) was -13.4% and the “% Inhibition (antagonist effect) of control agonist response, V1A (h)” value (hV1AR; [2]) was “negligible”. For the same compound, the “% Stimulation (agonist effect) of control agonist response, V1A (h)” value (hV1AR; 100 µM test compound) was 1.40 ± 2.83% and the inhibition at 100 µM (hV1AR; [3]) was -9.9%.
For FC(F)(F)c1cc(CO[C@H]2CCCN[C@H]2c2ccccc2)cc(C(F)(F)F)c1 [L 733,060, reference compound], the IC50 (hNK1R; standard antagonist, read-out: Antagonist effect IC50, NK1 (h)) was 0.58 nM.
With COc1cc(OC2OC(COC3OC(CO)C(O)C(O)C3O)C(O)C(O)C2O)c2c(O)c3c(=O)cc(C)oc3cc2c1 (stereo not drawn) [Rubrofusarin Gentiobioside, Rubrofusarin 6-O-β-gentiobioside] the “% Stimulation (agonist effect) of control agonist response, D3 (h)” value (hD3 receptor) was 7.05 ± 1.63%, the inhibition at 100 µM (hD3 receptor) was -0.05% and the “% Inhibition (antagonist effect) of control agonist response, NK1 (h)” value (hNK1R) was “negligible”. The “% Stimulation (agonist effect) of control agonist response, NK1 (h)” value (hNK1R) was −1.40 ± 0.42%, the inhibition at 100 µM (hNK1R) was 3.9% and the “% Inhibition (antagonist effect) of control agonist response, 5-HT1A (h)” value (h5-HT1AR) was “negligible”. The “% Stimulation (agonist effect) of control agonist response, 5-HT1A (h)” value (h5-HT1AR) was −0.30 ± 0.28%, the inhibition at 100 µM (h5-HT1AR) was 4.25% and the “% Inhibition (antagonist effect) of control agonist response, V1A (h)” value (hV1AR; [2]) was “negligible”. For the same compound, the “% Stimulation (agonist effect) of control agonist response, V1A (h)” value (hV1AR; 100 µM test compound) was −4.40 ± 1.41% and the inhibition at 100 µM (hV1AR; [3]) was -13.6%.
For O=C1c2cccc(O)c2C(=O)c2c(O)cc(CO)cc21 [aloe-emodin], the “Activity on vasopressin receptors” value (vasopressin receptors) is given as “remained inactive” and the “Activity on dopamine receptors” value (dopamine receptors) is given as “remained inactive”.
For Cc1cc(O)c2c(c1)C(=O)c1cc(O)cc(O)c1C2=O [emodin], the “Activity on vasopressin receptors” value (vasopressin receptors) is listed as “showed activity” and the “Activity on dopamine receptors” value (dopamine receptors) is listed as “showed activity”.
In the case of COc1c(O[C@@H]2O[C@H](CO)[C@@H](O)[C@H](O)[C@H]2O)cc2c(c1O)C(=O)c1c(cc(C)c(O)c1OC)C2=O [gluco-aurantio-obtusin], the IC50 [1] is listed as 30.24 ± 0.2 µM.
For COc1cc(O)cc2c1C(=O)c1c(O)cc(C)cc1C2=O [questin], the “Activity on vasopressin receptors” value (vasopressin receptors) is listed as “remained inactive” and the “Activity on dopamine receptors” value (dopamine receptors) is listed as “remained inactive”.
